Measured values reported in patent US8129398B2 (priority 2008, dated 2012).

target: T1, HIV-integrase (Human immunodeficiency virus type 1 group M subtype B, UniProt P12497); assay: HIV-Integrase Inhibition Activity (SPA bead integration assay with P33 labeled target DNA); type: biochemical; conditions: recombinant integrase, class symbols; read-out: in vitro activity
T1 construct: Recombinant integrase (0.26 ng) was incubated with the beads
Method in brief: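 Biotinylated substrate DNA on streptavidin SPA beads loaded with recombinant integrase (90 min, 37° C), washed, then inhibitor plus 0.1 fmol P33-labeled target DNA added. Reaction stopped with 10 mM EDTA; integration measured as CPM by scintillation, giving IC50 ranks.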

**Q.** `CC(C)N(C)C(=O)C(=O)NC12CCC(CC1)Cn1c2nc(C(=O)NCc2ccc(F)cc2)c(O)c1=O` [Example 105, N′-(2-((4-Fluorobenzyl)carbamoyl)-3-hydroxy-4-oxo-6,7,8,9-tetrahydro-7,10-ethanopyrimido[1,2-a]azepin-10(4H)-yl)-N-methyl-N-(1-methylethyl)ethanediamide] was tested. Which IC50 did it give?
**A.** The IC50 was under 10 nM.

**Q.** How did the IC50 turn out when `Cc1cnnn1-c1cc(F)ccc1CNC(=O)c1nc2n(c(=O)c1O)CC1CCC2(NC(=O)C(=O)N(C)C)CC1` [Example 106, N′-(2-((4-Fluoro-2-(5-methyl-1H-1,2,3-triazol-1-yl)benzyl)carbamoyl)-3-hydroxy-4-oxo-6,7,8,9-tetrahydro-7,10-ethanopyrimido[1,2-a]azepin-10(4H)-yl)-N,N-dimethylethanediamide] was run?
**A.** The IC50 was 10 to 100 nM.

**Q.** How did the IC50 turn out when `CN(C)C(=O)C(=O)NC12CCC(CC1)Cn1c2nc(C(=O)NCc2ccc(F)cc2-c2ncnn2C)c(O)c1=O` [Example 107, N′-(2-((4-Fluoro-2-(1-methyl-1H-1,2,4-triazol-5-yl)benzyl)carbamoyl)-3-hydroxy-4-oxo-6,7,8,9-tetrahydro-7,10-ethanopyrimido[1,2-a]azepin-10(4H)-yl)-N,N-dimethylethanediamide] was run?
**A.** The IC50 was 10 to 100 nM.

**Q.** `Cc1ncnn1-c1cc(F)ccc1CNC(=O)c1nc2n(c(=O)c1O)CC1CCC2(NC(=O)C(=O)N(C)C)CC1` [Example 108, N′-(2-((4-Fluoro-2-(5-methyl-1H-1,2,4-triazol-1-yl)benzyl)carbamoyl)-3-hydroxy-4-oxo-6,7,8,9-tetrahydro-7,10-ethanopyrimido[1,2-a]azepin-10(4H)-yl)-N,N-dimethylethanediamide] was tested. Which IC50 did it give?
**A.** Its IC50 is 10 to 100 nM.

**Q.** `CN(C)C(=O)C(=O)NC12CCC(CC1)Cn1c2nc(C(=O)NCc2ccc(F)cc2-c2nncn2C)c(O)c1=O` [Example 109, N′-(2-((4-Fluoro-2-(4-methyl-4H-1,2,4-triazol-3-yl)benzyl)carbamoyl)-3-hydroxy-4-oxo-6,7,8,9-tetrahydro-7,10-ethanopyrimido[1,2-a]azepin-10(4H)-yl)-N,N-dimethylethanediamide] was tested. Which IC50 did it give?
**A.** Its IC50 is 10 to 100 nM.

**Q.** How did the IC50 turn out when `CN(C)C(=O)C(=O)NC12CCC(CC1)Cn1c2nc(C(=O)NCc2ccc(F)c(F)c2)c(O)c1=O` [Example 111, N′-(2-((3,4-Difluorobenzyl)carbamoyl)-3-hydroxy-4-oxo-6,7,8,9-tetrahydro-7,10-ethanopyrimido[1,2-a]azepin-10(4H)-yl)-N,N-dimethylethanediamide] was run?
**A.** The IC50 was under 10 nM.

**Q.** With `CN(C)C(=O)C(=O)NC12CCC(CC1)Cn1c2nc(C(=O)NCc2ccc(F)c(Cl)c2)c(O)c1=O` [Example 112, N′-(2-((3-Chloro-4-fluorobenzyl)carbamoyl)-3-hydroxy-4-oxo-6,7,8,9-tetrahydro-7,10-ethanopyrimido[1,2-a]azepin-10(4H)-yl)-N,N-dimethylethanediamide] as the compound, how does the IC50 read?
**A.** The IC50 was under 10 nM.

**Q.** With `Cc1cc(CNC(=O)c2nc3n(c(=O)c2O)CC2CCC3(NC(=O)C(=O)N(C)C)CC2)ccc1F` [Example 113, N′-(2-((4-Fluoro-3-methylbenzyl)carbamoyl)-3-hydroxy-4-oxo-6,7,8,9-tetrahydro-7,10-ethanopyrimido[1,2-a]azepin-10(4H)-yl)-N,N-dimethylethanediamide] as the compound, how does the IC50 read?
**A.** Its IC50 is under 10 nM.

**Q.** `CN(C)C(=O)C(=O)NC12CCC(CC1)Cn1c2nc(C(=O)NCc2ccc(F)cc2F)c(O)c1=O` [Example 114, N′-(2-((2,4-Difluorobenzyl)carbamoyl)-3-hydroxy-4-oxo-6,7,8,9-tetrahydro-7,10-ethanopyrimido[1,2-a]azepin-10(4H)-yl)-N,N-dimethylethanediamide] was tested. Which IC50 did it give?
**A.** Its IC50 is under 10 nM.

**Q.** `CN(C)C(=O)C(=O)NC12CCC(CC1)Cn1c2nc(C(=O)NCc2ccc(F)c(Br)c2)c(O)c1=O` [Example 115, N′-(2-((3-Bromo-4-fluorobenzyl)carbamoyl)-3-hydroxy-4-oxo-6,7,8,9-tetrahydro-7,10-ethanopyrimido[1,2-a]azepin-10(4H)-yl)-N,N-dimethylethanediamide] was tested. Which IC50 did it give?
**A.** Its IC50 is under 10 nM.

**Q.** How did the IC50 turn out when `COc1cc(F)ccc1CNC(=O)c1nc2n(c(=O)c1O)CC1CCC2(NC(=O)C(=O)N(C)C)CC1` [Example 116, N′-(2-((4-Fluoro-2-methoxybenzyl)carbamoyl)-3-hydroxy-4-oxo-6,7,8,9-tetrahydro-7,10-ethanopyrimido[1,2-a]azepin-10(4H)-yl)-N,N-dimethylethanediamide] was run?
**A.** The IC50 was under 10 nM.

**Q.** How did the IC50 turn out when `CN(C)C(=O)C(=O)NC12CCC(CC1)Cn1c2nc(C(=O)NCc2ccc(F)cc2S(C)(=O)=O)c(O)c1=O` [Example 117, N′-(2-((4-Fluoro-2-(methylsulfonyl)benzyl)carbamoyl)-3-hydroxy-4-oxo-6,7,8,9-tetrahydro-7,10-ethanopyrimido[1,2-a]azepin-10(4H)-yl)-N,N-dimethylethanediamide] was run?
**A.** The IC50 was 10 to 100 nM.

**Q.** `CN(C)C(=O)C(=O)NC12CCC(CC1)Cn1c2nc(C(=O)NCc2ccc(F)cc2Cl)c(O)c1=O` [Example 118, N′-(2-((2-Chloro-4-fluorobenzyl)carbamoyl)-3-hydroxy-4-oxo-6,7,8,9-tetrahydro-7,10-ethanopyrimido[1,2-a]azepin-10(4H)-yl)-N,N-dimethylethanediamide] was tested. Which IC50 did it give?
**A.** The IC50 was under 10 nM.

**Q.** How did the IC50 turn out when `CN(C)C(=O)C(=O)NC12CCC(CC1)Cn1c2nc(C(=O)NCc2ccc(F)c(C(F)(F)F)c2)c(O)c1=O` [Example 119, N′-(2-((4-Fluoro-3-(trifluoromethyl)benzyl)carbamoyl)-3-hydroxy-4-oxo-6,7,8,9-tetrahydro-7,10-ethanopyrimido[1,2-a]azepin-10(4H)-yl)-N,N-dimethylethanediamide] was run?
**A.** The IC50 was under 10 nM.

**Q.** `Cc1cc(F)ccc1CNC(=O)c1nc2n(c(=O)c1O)CC1CCC2(NC(=O)C(=O)N(C)C)CC1` [Example 120, N′-(2-((4-Fluoro-2-methylbenzyl)carbamoyl)-3-hydroxy-4-oxo-6,7,8,9-tetrahydro-7,10-ethanopyrimido[1,2-a]azepin-10(4H)-yl)-N,N-dimethylethanediamide] was tested. Which IC50 did it give?
**A.** The IC50 was under 10 nM.

**Q.** Which IC50 does the source give for `CN(C)C(=O)C(=O)NC12CCC(CC1)Cn1c2nc(C(=O)NCc2ccc(F)cc2C(F)(F)F)c(O)c1=O` [Example 121, N′-(2-((4-Fluoro-2-(trifluoromethyl)benzyl)carbamoyl)-3-hydroxy-4-oxo-6,7,8,9-tetrahydro-7,10-ethanopyrimido[1,2-a]azepin-10(4H)-yl)-N,N-dimethylethanediamide] here?
**A.** The IC50 was under 10 nM.

**Q.** `CN(C)C(=O)C(=O)NC12CCC(CC1)Cn1c2nc(C(=O)NCc2ccc(F)cc2CO)c(O)c1=O` [Example 122, N′-(2-((4-Fluoro-2-(hydroxymethyl)benzyl)carbamoyl)-3-hydroxy-4-oxo-6,7,8,9-tetrahydro-7,10-ethanopyrimido[1,2-a]azepin-10(4H)-yl)-N,N-dimethylethanediamide] was tested. Which IC50 did it give?
**A.** The IC50 was under 10 nM.

**Q.** How did the IC50 turn out when `CN(C)C(=O)C(=O)NC12CCC(CC1)Cn1c2nc(C(=O)NCc2ncc(F)cc2F)c(O)c1=O` [Example 123, N′-(2-(((3,5-Difluoro-2-pyridinyl)methyl)carbamoyl)-3-hydroxy-4-oxo-6,7,8,9-tetrahydro-7,10-ethanopyrimido[1,2-a]azepin-10(4H)-yl)-N,N-dimethylethanediamide] was run?
**A.** Its IC50 is 10 to 100 nM.

**Q.** With `CN(C)C(=O)C(=O)NC12CCC(CC1)Cn1c2nc(C(=O)NCc2ccc(F)c(C(F)F)c2)c(O)c1=O` [Example 124, N′-(2-((3-(Difluoromethyl)-4-fluorobenzyl)carbamoyl)-3-hydroxy-4-oxo-6,7,8,9-tetrahydro-7,10-ethanopyrimido[1,2-a]azepin-10(4H)-yl)-N,N-dimethylethanediamide] as the compound, how does the IC50 read?
**A.** Its IC50 is under 10 nM.
